# Laboratory results published in PubChem BioAssay (NCI).
# Several values for one entry are separate records, joined by “and”; a condition that tells them apart may be missing. Identical values can stand only once.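 The compound was tested at five concentrations on cells cultured in 96-well plates, with a 48-hour exposure period. GI50 marks 50% less growth. TGI: concentration producing complete growth inhibition.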
# Tests used:
# Experiment in all cases: NCI anticancer screen, dose series, 48 h
# [1] = tested on: A549 NSCLC
# [2] = tested on: K-562 leukemia
# [3] = tested on: M14 melanoma
# [4] = tested on: MALME-3M melanoma
# [5] = tested on: MDA-MB-231 breast
# [6] = tested on: NCI-H23 lung
# [7] = tested on: OVCAR-5 ovarian
# [8] = tested on: SNB-19 CNS
# [9] = tested on: T-47D breast
# [10] = tested on: UACC-62 melanoma
Structure (SMILES),GI50 [1],TGI [1],GI50 [2],TGI [2],GI50 [3] [µM],TGI [3],GI50 [4] [µM],TGI [4],GI50 [5],TGI [5] [µM],GI50 [6] [µM],TGI [6],GI50 [7] [µM],TGI [7],GI50 [8] [µM],TGI [8] [µM],GI50 [9],TGI [9],GI50 [10],TGI [10]
C=C(C)[C@@H]1CCC[C@]2(C(=O)O)CC[C@]3(C)[C@@H](CC[C@@H]4[C@@]5(C)C/C(=C/c6ccncc6)C(=O)C(C)(C)[C@@H]5CC[C@]43C)[C@@H]12,1.72 µM,5.26 µM,3.3 µM,> 100 µM,2.24,5.85 µM,3.46,23.2 µM,3.05 µM,24.3,3.33,12.9 µM,2.52,11.9 µM,3.69,17.1,3.98 µM,> 100 µM,2.05 µM,5.68 µM
CCCCCCCCCCCCCCCCCC1=NC(C)(C)CN1CCO,–,–,1.53 µM,3.35 µM,1.81,3.49 µM,2.18,5.6 µM,1.77 µM,3.41,1.71,3.33 µM,1.78,3.6 µM,1.66,3.28,2.24 µM,5.61 µM,1.68 µM,3.18 µM
CN1CCN(C(=S)SCN2C(=O)c3ccccc3S2(=O)=O)CC1,28.3 µM,> 100 µM,14.5 µM,94.6 µM,7.93,22.8 µM,23.1,95.8 µM,35.3 µM,> 100,35.1,> 100 µM,30.2,> 100 µM,> 100,> 100,11 µM,> 100 µM,18.8 µM,54.1 µM
CN(C)c1ccc(Sc2ccc3nc(N)nc(N)c3c2)cc1,0.139 µM,12 µM,0.142 µM,4.55 µM,0.363,2.13 µM,1.09,2.87 µM,2.23 µM,14.1,0.665,18 µM,1.16,21 µM,1.2,17.7,1.66 µM,4.82 µM,0.519 µM,5.78 µM
N#Cc1ccc(N2Cc3cc(Cl)ccc3OC3=C2C(=O)N(Cc2ccccc2)C3=O)cc1,10.1 µM,26.7 µM,0.359 µM,2.02 µM,1.49,3.68 µM,1.44,3.08 µM,1.74 µM,3.99,2.14,5.34 µM,1.96,4.08 µM,3.32,11.7,0.714 µM,2.58 µM,1.26 µM,2.86 µM
COC(=O)Nc1nc2ccc(Sc3ccc(NC(=O)Nc4cc(C(F)(F)F)ccc4F)cc3)cc2[nH]1,3.01 µM,7.06 µM,0.739 µM,5.89 µM,2.01,8.26 µM,2.99,23.6 µM,2.84 µM,9.32,3.84,11.9 µM,3.5,9.24 µM,6.98,25,4.43 µM,11.2 µM,1.85 µM,8.38 µM
Cc1csc(Nc2nc(-c3cccc(Cl)c3)nc(C(Cl)(Cl)Cl)n2)n1,1.06 µM,5.27 µM,7.41 µM,> 33.3 µM,> 33.3,> 33.3 µM,> 33.3,> 33.3 µM,2.17 µM,> 33.3,23.7,> 33.3 µM,8.86,> 33.3 µM,3.27,> 33.3,1.04 µM,8.54 µM,6.73 µM,> 33.3 µM
O=C(NO)C(O)C(O)C(O)C(O)CO (centres undefined),> 100 µM and 54.1 µM,> 100 µM,> 87.6 µM and 47.1 µM,> 100 µM,> 100,> 100 µM,> 100,> 100 µM,> 100 µM and 58.8 µM,> 100,> 100,> 100 µM,> 100,> 100 µM,> 100,> 100,> 100 µM,> 100 µM,84.2 µM and 38.6 µM,> 100 µM
CCOC(=O)C1=C(c2ccccc2)N(Cc2ccccc2)C2(O)C=CC(=O)C3C(=O)N(c4ccccc4)C(=O)C132 (centres undefined),2.96 µM,11.4 µM,2.2 µM,8.79 µM,1.92,4.04 µM,1.79,3.34 µM,2.2 µM,4.98,2.12,5.59 µM,3.23,15.5 µM,2,4.59,1.67 µM,4.44 µM,1.63 µM,3.16 µM
O=C(Nc1ccccc1)Nc1ccccc1CNc1nc(Nc2ccc(OCCN3CCCC3)cc2)ncc1Cl,5.7 µM,21.7 µM,1.67 µM,> 50 µM,2.51,9.79 µM,5.51,12.7 µM,1.49 µM,5.65,7.29,19.5 µM,6.6,13.3 µM,5.53,12.5,2.75 µM,20.8 µM,3.83 µM,10.9 µM
O=C(CN=Cc1cccs1)CSC(c1ccccc1)c1ccccc1,21.7 µM,76.1 µM,15.8 µM,54.1 µM,22,55.5 µM,19.6,49.4 µM,24.5 µM,95.6,29.2,> 100 µM,44.3,> 100 µM,32.5,> 100,20.1 µM,84.3 µM,16.2 µM,36.9 µM
O=[N+]([O-])O.[NH-]C1CCCCC1[NH-].[NH-]C1CCCCC1[NH-].[NH-]C1CCCCC1[NH-].[OH-].[OH-].[OH-].[Pt+4].[Pt+4].[Pt+4] (centres undefined),0.319 µM,31.3 µM,0.452 µM,> 100 µM,0.918,11.9 µM,0.199,2.7 µM,4.01 µM,> 64.4,0.359,4.7 µM,2.03,93.8 µM,1.06,> 58.9,1.08 µM,> 83.9 µM,0.3 µM,16.5 µM
C#Cc1ccc(-n2c(/C=C/c3cc(OC)c(OC)c(OC)c3)nc3ncccc3c2=O)cc1,5.65 µM,> 100 µM,3.83 µM,> 100 µM,4.94,> 100 µM,9.74,70.5 µM,5.53 µM,> 100,17.3,> 100 µM,> 100,> 100 µM,16.2,> 100,5.85 µM,> 100 µM,6.9 µM,> 100 µM
O=[N+]([O-])c1cccc(-c2ncc(-c3ccc(Cl)cc3Cl)[nH]2)c1,22 µM,> 56.9 µM,2.1 µM,> 19.7 µM,8.35,26.9 µM,3.69,8.84 µM,11.7 µM,30.9,10.6,43.7 µM,8.07,23.1 µM,7.85,23.2,6.88 µM,28.5 µM,7.63 µM,20.6 µM
CCSc1nc(N)c2cnn(C)c2n1,52.6 µM,> 100 µM,54.5 µM,> 100 µM,52,> 100 µM,33.6,> 100 µM,25.1 µM,71,41.5,> 100 µM,49.9,> 100 µM,58.4,> 100,0.0485 µM,> 100 µM,29.5 µM,69.6 µM
CC(=O)Nc1ccc(-n2cnc3cc(-c4ccc(OCCN5CCCCC5)cc4)ccc32)cc1,1.4 µM,5.74 µM,0.944 µM,> 33.3 µM,5.34,10.4 µM,2.46,7.59 µM,5.33 µM,13,5.07,11.6 µM,6.22,14.6 µM,8.53,33.1,6.34 µM,17.2 µM,6.79 µM,13 µM
CN1c2ccccc2C(=O)Nc2cnc(Cl)nc21,–,> 100 µM,–,> 100 µM,–,> 100 µM,–,> 100 µM,–,> 100,–,> 100 µM,–,> 100 µM,–,> 100,–,> 100 µM,–,> 100 µM
C=CC[PH+](c1ccccc1)c1ccccc1.C=CC[PH+](c1ccccc1)c1ccccc1.[Cl][Pt][Cl],21.8 µM,> 100 µM,3.27 µM,11.9 µM,6.35,22.3 µM,2.22,5.8 µM,3.23 µM,10.3,9.14,23.9 µM,13.9,30.4 µM,14.2,32.4,4.59 µM,24.6 µM,5.88 µM,19.5 µM
CCCCCCN(CCCCCC)CC(O)c1cccc2ccc(Cl)cc12 (centres undefined),12.2 µM,26.4 µM,4.87 µM,20.9 µM,9.48,22 µM,9.43,22.4 µM,4.18 µM,16.2,5.42,19.5 µM,2.6,13.7 µM,12.9,26.6,1.67 µM,4.46 µM,8.11 µM,21.2 µM
O=C(CC(C(=O)O)N1CCOCC1)c1ccccc1 (centres undefined),–,> 100 µM,–,49.1 µM,–,30.8 µM,–,34 µM,–,32.4,–,40.6 µM,–,47.3 µM,–,53.4,–,> 100 µM,–,29.5 µM
CC(=O)C1=C(O)/C(=C\c2ccco2)OC1=O,–,> 10 µM,–,> 10 µM,–,> 10 µM,–,> 10 µM,–,> 10,–,> 10 µM,–,> 10 µM,–,> 10,–,> 10 µM,–,> 10 µM
CCc1nc(N)nc(N)c1-c1ccc([N+](=O)[O-])c(Cl)c1,–,> 80.8 µM,–,> 100 µM,–,> 100 µM,–,> 100 µM,–,> 100,–,> 100 µM,–,> 100 µM,–,> 100,–,> 100 µM,–,> 100 µM
CC(C)(C)c1ccc(S(=O)(=O)N[C@H]2CC[C@H]3[C@@H]4CCc5cc(O)ccc5[C@H]4CC[C@]23C)cc1,2.14 µM,7.24 µM,2.46 µM,8.64 µM,2.02,4.04 µM,2.78,7.13 µM,1.91 µM,4.13,2.03,4.28 µM,2.08,4.2 µM,3.54,18,2.59 µM,8.76 µM,2.16 µM,5.91 µM
CCCCCCCCCCCCCCCC(=O)OCC1OC(n2ccc(N)nc2=O)C(O)C1O (centres undefined),–,> 100 µM,–,> 100 µM,–,33.7 µM,–,> 54.6 µM,–,> 100,–,> 41.6 µM,–,> 100 µM,–,> 100,–,> 100 µM,–,> 100 µM
CCOC(=O)Cc1csc(NC(=O)C(OC(=O)c2ccc(N)cc2)c2ccccc2)n1 (centres undefined),51.5 µM,> 100 µM,31.6 µM,> 100 µM,22.6,62.5 µM,44.2,> 100 µM,31.6 µM,97.1,–,–,> 100,> 100 µM,53,> 100,55.2 µM,> 100 µM,25.9 µM,65.6 µM
CC[C@@]1(OC(=O)CN(C)C)C(=O)OCc2c1cc1n(c2=O)Cc2cc3ccccc3nc2-1,0.042 µM,4.33 µM and 7.12 µM,0.108 µM,7.67 µM and > 41.5 µM,0.0424,0.574 µM and 0.559 µM,0.293,4.96 µM and 4.89 µM,1.44 µM,> 100,0.0207,0.342 µM and 0.381 µM,0.184,2.93 µM and 5.92 µM,–,–,0.00498 µM and 0.0451 µM,0.32 µM and 2.03 µM,< 0.012 µM,0.116 µM and 0.132 µM
